Results reported in patent US20080206311A1, “Sucrase Activity Inhibitor, Glucoamylase Activity Inhibitor and Food and Feed Containing the Same” (MITSUI SUGAR CO., LTD., priority 2005, published 2008).

Key:
lactase = target: T1, lactase (Rattus norvegicus, UniProt Q02401); experiment: Lactase activity inhibition with rat small-intestinal enzyme liquid, substrate lactose; assay type: biochemical; conditions: 5% lactose + 5% test sample
T1 construct: tissue Sigma Corporation; host or cells: rat small intestine (acetone powder), buffer extract, unpurified
T1 sequence (Q02401 868-1928): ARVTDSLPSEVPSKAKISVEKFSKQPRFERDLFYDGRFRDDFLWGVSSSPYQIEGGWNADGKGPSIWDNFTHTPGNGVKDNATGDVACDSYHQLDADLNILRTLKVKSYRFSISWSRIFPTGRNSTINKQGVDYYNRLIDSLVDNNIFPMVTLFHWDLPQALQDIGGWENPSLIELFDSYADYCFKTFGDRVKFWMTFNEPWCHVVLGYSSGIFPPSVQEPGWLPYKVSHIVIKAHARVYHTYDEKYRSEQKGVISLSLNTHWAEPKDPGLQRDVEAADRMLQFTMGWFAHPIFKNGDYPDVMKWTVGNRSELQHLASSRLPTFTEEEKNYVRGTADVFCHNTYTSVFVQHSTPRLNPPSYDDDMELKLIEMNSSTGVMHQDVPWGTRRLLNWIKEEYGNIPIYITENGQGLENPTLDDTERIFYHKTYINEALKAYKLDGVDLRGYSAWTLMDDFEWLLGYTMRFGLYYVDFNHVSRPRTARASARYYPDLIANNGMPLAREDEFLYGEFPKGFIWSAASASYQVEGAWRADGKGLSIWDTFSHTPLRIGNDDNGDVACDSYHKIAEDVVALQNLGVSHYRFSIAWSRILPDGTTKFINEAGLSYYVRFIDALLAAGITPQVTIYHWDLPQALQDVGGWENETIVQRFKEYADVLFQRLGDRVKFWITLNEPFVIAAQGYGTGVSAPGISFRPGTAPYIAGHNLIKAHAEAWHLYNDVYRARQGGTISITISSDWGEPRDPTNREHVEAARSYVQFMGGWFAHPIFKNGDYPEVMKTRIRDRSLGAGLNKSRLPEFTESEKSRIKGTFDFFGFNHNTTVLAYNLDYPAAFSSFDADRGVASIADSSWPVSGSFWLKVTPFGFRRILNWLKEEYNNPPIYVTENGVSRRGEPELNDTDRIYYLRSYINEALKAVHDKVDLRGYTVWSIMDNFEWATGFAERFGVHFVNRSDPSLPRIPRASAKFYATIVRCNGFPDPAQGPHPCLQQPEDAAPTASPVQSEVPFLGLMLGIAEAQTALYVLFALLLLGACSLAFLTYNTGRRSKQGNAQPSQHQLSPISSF
Description: (§1) Two grams of rat small-intestinal acetone powder (ex Sigma Corporation) were dissolved in 20 ml of 0.1 M phosphate buffer (pH 6.8), left standing one day at 5° C., and subsequently subjected to centrifugal separation (8000 rpm×15 min.). The supernatant was filtered through a 0.8 μm membrane filter to obtain a small-intestinal enzyme liquid. This liquid contained a mixture of enzymes present in small intestine, such as sucrose, glucoamylase, maltase, and isomaltase.
(§2) Each 0.25 ml of the small-intestinal enzyme liquid was added to each 5 ml of Solutions 1 through 5 and placed in a water bath at 37° C. to allow them to react for 60 min. while shaken at 60 strokes/min. After the reaction, they were heated in a boiling water bath for 3 min. for inactivation of the enzymes.
(§3) The glucose concentration in each solution after the reaction was measured using the F-kit Glucose (ex Roche). A liberated glucose concentration (g/l) was calculated by subtracting the blank value (0.1 M phosphate buffer alone) and the concentration of glucose originally contained in the test sample from each glucose concentration measured.
Next, each of the liberated glucose concentration was input in the following equation to obtain decomposition inhibition ratio for maltase and sucrose. In the present tests, the substrates and the inhibitors were decomposed by enzymes present in the small-intestinal enzyme liquid. However, the enzymes decomposing the substrates are different from the enzymes decomposing the inhibitors. The decomposition inhibition ratio was determined as a measure for the inhibitory effect. When the inhibitor was added, the glucose concentration was lower than that seen when the substrate alone was reacted. A higher decomposition inhibition ratio means a stronger inhibitory effect.
Decomposition inhibition ratio,%={(A+B)−(AB)}+(A+B)×100 [Equation 1]
wherein (A+B) indicates a sum of a liberated glucose concentration in the control solution containing the test sample alone after the reaction (A) and a liberated glucose concentration in the control solution containing the substrate alone after the reaction (B); and (AB) indicates a liberated glucose concentration in the test solution containing the test sample (A) and the substrate (B), after the reaction.
(§4) The procedures in Example 1 were repeated with the exception that palatinit, palatinose or isomaltose was used as a test sample and lactose was used as a substrate. The test samples and the substrate were dissolved in 0.1 M phosphate buffer (pH 6.8) to attain the concentration shown in Table 5 to thereby prepare three test solutions. Besides, each of the test samples or the substrate was dissolved in 0.1 M phosphate buffer (pH 6.8) to attain the concentration shown in Table 5 to thereby prepare control solutions. Each 5 ml of the aforementioned test solutions and the control solutions was subjected to the enzymatic reaction according to the same procedures as in Example 1. The glucose concentration, the fructose concentration and the galactose concentration were measured. The galactose concentration was measured using F-kit Galactose (ex Roche). The liberated galactose concentration, g/l, was calculated by subtracting the blank value (0.1 M phosphate buffer alone) from the measured galactose concentration.

[1] = system: small-intestinal enzyme liquid; experiment: Decomposition of a saccharide alone (control solution) by small-intestinal enzyme liquid; assay type: biochemical, rat; conditions: 5% saccharide alone
Description: Palatinose (trade name: Palatinose IC, ex Shin Mitsui Sugar Co., Ltd.) (test sample) was used as a sample for investigating each enzyme activity inhibitory effect. Maltose and sucrose were used as substrates for maltase and sucrose, respectively. The test sample and the substrates were dissolved in 0.1 M phosphate buffer (pH 6.8) at the concentration shown in Table 1 below to prepare test solutions (Solutions 4 and 5). Also, the test sample or the substrates were dissolved in 0.1 M phosphate buffer (pH 6.8), respectively to at the concentration shown in Table 1 below to prepare control solutions (Solution 1 for the test sample and Solutions 2 and 3 for the substrates).
as §1, §2, §3
The fructose concentration was measured using the F-kit Fructose (ex Roche). The liberated fructose concentration, g/l, was obtained by subtracting the blank value (0.1 M phosphate buffer alone) from the resultant fructose concentration.
as §4

**Q.** With `OC[C@H]1O[C@H](OC[C@H]2OC(O)(CO)[C@@H](O)[C@@H]2O)[C@H](O)[C@@H](O)[C@@H]1O` (stereo partly shown) [palatinose, isomaltulose] as the molecule, how does the “Decomposition inhibition ratio, %, against lactase” value (lactase) read?
**A.** Its value is 3%.

**Q.** And the “Lactase activity inhibitory effect (in words)” value (lactase)?
**A.** Its value is “no lactose inhibitory effect was appreciable”.

**Q.** What about the Liberated fructose concentration (lactase) of the same molecule?
**A.** Its Liberated fructose concentration is 0.23 g/L.

**Q.** And the Liberated galactose concentration (lactase)?
**A.** Its Liberated galactose concentration is 0.12 g/L.

**Q.** And the Liberated glucose concentration (lactase)?
**A.** Its Liberated glucose concentration is 0.33 g/L.

**Q.** What about the Liberated glucose concentration ([1]; 37° C., 60 min, pH 6.8, Example 1 / Test Example 1) of the same molecule?
**A.** The Liberated glucose concentration was 0.095 ± 0.010 g/L.

**Q.** And the Liberated fructose concentration ([1]; Example 3 / Test Examples 2, 3)?
**A.** The Liberated fructose concentration was 0.21 g/L.

**Q.** And the Liberated glucose concentration ([1]; Example 3 / Test Examples 2, 3)?
**A.** The Liberated glucose concentration was 0.11 g/L.

**Q.** What about the Liberated glucose concentration ([1]; Example 4) of the same molecule?
**A.** Its Liberated glucose concentration is 0.205 g/L.

**Q.** And the Liberated galactose concentration ([1]; Test Example 3)?
**A.** The Liberated galactose concentration was 0.00 g/L.
